Test results reported in patent US9505745B2, “Enhancer of zeste homolog 2 inhibitors” (GlaxoSmithKline Intellectual Property (No.2) Limited, priority 2013, dated 2016).
pIC50: −log10 of the molar value. Structures can show the parent of a compound that is named as a salt.

Key:
[1] = molecular target: T1, EZH2 within the PRC2 complex (Homo sapiens (Human), UniProt Q15910); test: EZH2 methyltransferase SPA, mononucleosome substrate (Assay Protocol 1); assay type: biochemical; details: HeLa mononucleosome substrate, 3H-SAM, ≦10 nM approaches limit of detection
T1 sequence (Q15910 whole entry): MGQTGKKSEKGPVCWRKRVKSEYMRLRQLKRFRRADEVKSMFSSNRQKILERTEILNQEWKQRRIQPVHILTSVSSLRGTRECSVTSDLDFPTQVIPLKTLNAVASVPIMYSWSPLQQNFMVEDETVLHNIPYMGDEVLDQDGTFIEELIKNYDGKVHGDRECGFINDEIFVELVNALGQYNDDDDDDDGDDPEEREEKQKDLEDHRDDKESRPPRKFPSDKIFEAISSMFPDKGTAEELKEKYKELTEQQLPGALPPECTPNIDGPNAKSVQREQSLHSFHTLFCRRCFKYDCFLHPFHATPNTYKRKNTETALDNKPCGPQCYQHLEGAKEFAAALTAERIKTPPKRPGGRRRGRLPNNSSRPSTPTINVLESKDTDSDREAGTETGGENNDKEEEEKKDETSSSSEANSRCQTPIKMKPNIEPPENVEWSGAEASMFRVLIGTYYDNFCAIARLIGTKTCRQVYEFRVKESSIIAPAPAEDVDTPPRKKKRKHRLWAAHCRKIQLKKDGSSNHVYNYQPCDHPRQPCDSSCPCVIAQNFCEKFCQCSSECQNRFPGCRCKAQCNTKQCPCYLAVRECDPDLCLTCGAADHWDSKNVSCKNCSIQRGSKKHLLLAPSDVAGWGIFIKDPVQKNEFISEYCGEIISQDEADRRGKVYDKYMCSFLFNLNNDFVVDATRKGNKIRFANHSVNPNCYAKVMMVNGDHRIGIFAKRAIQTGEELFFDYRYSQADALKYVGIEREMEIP
T1 sequence (O75530 whole entry partner): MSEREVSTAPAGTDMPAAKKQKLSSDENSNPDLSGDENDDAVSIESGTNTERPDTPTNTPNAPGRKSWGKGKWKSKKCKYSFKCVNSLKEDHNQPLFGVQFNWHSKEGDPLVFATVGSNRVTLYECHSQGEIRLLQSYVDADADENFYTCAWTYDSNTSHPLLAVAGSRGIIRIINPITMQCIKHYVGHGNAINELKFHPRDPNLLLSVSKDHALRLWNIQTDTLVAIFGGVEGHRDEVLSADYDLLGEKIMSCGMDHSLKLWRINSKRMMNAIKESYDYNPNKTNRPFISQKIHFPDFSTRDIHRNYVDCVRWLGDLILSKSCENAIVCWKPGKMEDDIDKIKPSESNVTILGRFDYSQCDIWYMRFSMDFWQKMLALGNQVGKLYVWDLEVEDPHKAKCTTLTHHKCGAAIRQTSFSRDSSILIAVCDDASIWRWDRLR
T1 sequence (Q15022 whole entry partner): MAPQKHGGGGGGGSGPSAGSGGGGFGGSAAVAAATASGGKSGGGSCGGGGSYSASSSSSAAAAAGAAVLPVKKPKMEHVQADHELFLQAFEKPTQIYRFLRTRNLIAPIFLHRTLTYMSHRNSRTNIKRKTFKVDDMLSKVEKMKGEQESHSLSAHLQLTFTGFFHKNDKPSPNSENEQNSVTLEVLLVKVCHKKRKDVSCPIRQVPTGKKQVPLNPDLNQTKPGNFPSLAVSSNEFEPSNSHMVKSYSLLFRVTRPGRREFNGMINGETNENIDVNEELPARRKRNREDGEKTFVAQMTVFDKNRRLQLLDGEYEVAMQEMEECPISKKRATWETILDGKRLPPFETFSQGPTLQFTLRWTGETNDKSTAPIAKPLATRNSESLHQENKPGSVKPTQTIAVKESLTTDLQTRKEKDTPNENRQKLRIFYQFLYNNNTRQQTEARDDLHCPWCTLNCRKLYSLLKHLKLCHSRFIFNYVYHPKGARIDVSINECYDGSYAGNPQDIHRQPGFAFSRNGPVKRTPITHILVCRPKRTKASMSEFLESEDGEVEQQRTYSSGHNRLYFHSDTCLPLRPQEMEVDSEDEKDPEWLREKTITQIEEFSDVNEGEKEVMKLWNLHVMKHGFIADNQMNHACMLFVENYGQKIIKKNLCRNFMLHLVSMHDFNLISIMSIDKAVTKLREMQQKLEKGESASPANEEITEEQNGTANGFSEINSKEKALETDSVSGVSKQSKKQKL
T1 sequence (Q09028 whole entry partner): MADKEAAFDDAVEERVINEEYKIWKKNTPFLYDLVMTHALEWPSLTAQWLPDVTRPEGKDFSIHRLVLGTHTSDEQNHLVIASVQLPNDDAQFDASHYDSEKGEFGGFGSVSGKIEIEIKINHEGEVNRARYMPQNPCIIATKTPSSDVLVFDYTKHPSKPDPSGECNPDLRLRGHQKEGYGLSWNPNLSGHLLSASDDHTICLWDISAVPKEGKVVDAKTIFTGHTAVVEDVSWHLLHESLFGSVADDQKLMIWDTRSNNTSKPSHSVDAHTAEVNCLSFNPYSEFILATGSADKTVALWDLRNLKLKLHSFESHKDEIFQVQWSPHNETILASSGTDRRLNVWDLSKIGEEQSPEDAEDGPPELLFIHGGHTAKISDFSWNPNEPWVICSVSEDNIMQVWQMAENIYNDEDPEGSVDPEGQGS
T1 sequence (Q6ZN18 whole entry partner): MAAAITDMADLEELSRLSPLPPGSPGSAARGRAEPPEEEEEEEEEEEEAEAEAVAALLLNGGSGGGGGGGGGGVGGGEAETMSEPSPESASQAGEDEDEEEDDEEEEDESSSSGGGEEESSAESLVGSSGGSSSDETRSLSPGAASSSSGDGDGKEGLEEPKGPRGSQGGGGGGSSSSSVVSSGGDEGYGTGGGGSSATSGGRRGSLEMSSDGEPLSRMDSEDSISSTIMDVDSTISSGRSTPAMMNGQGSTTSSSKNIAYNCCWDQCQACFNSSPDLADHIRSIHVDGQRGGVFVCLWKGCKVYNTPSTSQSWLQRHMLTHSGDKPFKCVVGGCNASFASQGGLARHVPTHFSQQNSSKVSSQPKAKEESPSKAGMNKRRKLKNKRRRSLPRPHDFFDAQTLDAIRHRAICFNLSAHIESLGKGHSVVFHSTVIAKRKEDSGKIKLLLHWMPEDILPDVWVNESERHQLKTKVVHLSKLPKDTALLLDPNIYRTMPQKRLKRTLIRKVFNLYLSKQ
Description: Compounds contained herein were evaluated for their ability to inhibit the methyltransferase activity of EZH2 within the PRC2 complex. Human PRC2 complex was prepared by co-expressing each of the 5 member proteins (FLAG-EZH2, EED, SUZ12, RbAp48, AEBP2) in Sf9 cells followed by co-purification. Enzyme activity was measured in a scintillation proximity assay (SPA) where a tritiated methyl group is transferred from 3H-SAM to a lysine residue on Histone H3 of a mononucleosome, purified from HeLa cells. Mononucleosomes were captured on SPA beads and the resulting signal is read on a ViewLux plate reader.
Part A. Compound Preparation
• 1. Prepare 10 mM stock of compounds from solid in 100% DMSO. • 2. Set up an 11-point serial dilution (1:3 dilution, top concentration 10 mM) in 100% DMSO for each test compound in a 384 well plate leaving columns 6 and 18 for DMSO controls. • 3. Dispense 100 nL of compound from the dilution plate into reaction plates (Grenier Bio-One, 384-well, Cat#784075). Part B. Reagent Preparation Prepare the following solutions: • 1. 50 mM Tris-HCl, pH 8: Per 1 L of base buffer, combine 1 M Tris-HCl, pH 8 (50 mL) and distilled water (950 mL). • 2. 1× Assay Buffer: Per 10 mL of 1× Assay Buffer, combine 50 mM Tris-HCl, pH 8 (9958 uL), 1 M MgCl2 (20 uL), 2 M DTT (20 uL), and 10% Tween-20 (2 uL) to provide a final concentration of 50 mM Tris-HCl, pH 8, 2 mM MgCl2, 4 mM DTT, 0.002% Tween-20. • 3. 2× Enzyme Solution: Per 10 mL of 2× Enzyme Solution, combine 1× Assay Buffer and PRC2 complex to provide a final enzyme concentration of 10 nM. • 4. SPA Bead Suspension: Per 1 mL of SPA Bead Suspension, combine PS-PEI coated LEADSeeker beads (40 mg) and H2O (1 mL) to provide a final concentration of 40 mg/mL. • 5. 2× Substrate Solution: Per 10 mL of 2× Substrate Solution, combine 1× Assay Buffer (9728.55 uL), 800 ug/mL mononucleosomes (125 uL), 1 mM cold SAM (4 uL), and 7.02 uM 3H-SAM (142.45 uL; 0.55 mCi/mL) to provide a final concentration of 5 ug/mL nucleosomes, 0.2 uM cold SAM, and 0.05 uM 3H-SAM. • 6. 2.67× Quench/Bead Mixture: Per 10 mL of 2.67× Quench/Bead Mixture, combine ddH2O (9358 uL), 10 mM cold SAM (267 uL), 40 mg/mL Bead Suspension (375 uL) to provide a final concentration of 100 uM cold SAM and 0.5 mg/mL SPA beads. Part C. Assay Reaction in 384-well Grenier Bio-One Plates Compound Addition • 1. Dispense 100 nL/well of 100× Compound to test wells (as noted above). • 2. Dispense 100 nL/well of 100% DMSO to columns 6 & 18 for high and low controls, respectively. Assay • 1. Dispense 5 uL/well of 1× Assay Buffer to column 18 (low control reactions). • 2. Dispense 5 uL/well of 2× Enzyme Solution to columns 1-17, 19-24. • 3. Spin assay plates for ˜1 min at 500 rpm. • 4. Stack the assay plates, covering the top plate. • 5. Incubate the compound/DMSO with the enzyme for 30 min at room temperature. • 6. Dispense 5 uL/well of 2× Substrate Solution to columns 1-24. • 7. Spin assay plates for ˜1 min at 500 rpm. • 8. Stack the assay plates, covering the top plate. • 9. Incubate the assay plates at room temperature for 1 hour. Quench/Bead Addition • 1. Dispense 5 uL/well of the 3× Quench/Bead Mixture to columns 1-24. • 2. Seal the top of each assay plate with adhesive TopSeal. • 3. Spin assay plates for ˜1 min at 500 rpm. • 4. Equilibrate the plates for >20 min. Read plates • 1. Read the assay plates on the Viewlux Plate Reader utilizing the 613 nm emission filter with a 300 s read time.
Reagent addition can be done manually or with automated liquid handler. • The final DMSO concentration in this assay is 1%. • The positive control is in column 6; negative control is in column 18. • Final starting concentration of compounds is 100 µM. Results
Percent inhibition was calculated relative to the DMSO control for each compound concentration and the resulting values were fit using standard IC50 fitting parameters within the ABASE data fitting software package.

[2] = molecular target: T1, EZH2 within the PRC2 complex; test: EZH2 methyltransferase SPA, biotinylated histone H3K27 peptide substrate (Assay Protocol 2); assay type: biochemical; details: 3H-SAM, ≦10 nM approaches limit of detection
Summary of the method: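 Scintillation proximity read-out of 3H-methyl transfer onto biotinylated unmethylated H3K27 peptide (10 uM) captured on streptavidin beads; SAM 0.15 uM tritiated plus 2.85 uM cold.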

Structure (SMILES)	pIC50 [1]	pIC50 [2]
CCN(c1scc(C(=O)NCc2c(C(F)(F)F)cc(C)[nH]c2=O)c1C)C1CCOCC1 [Example 15, 5-(Ethyl(tetrahydro-2H-pyran-4-yl)amino)-4-methyl-N-((6-methyl-2-oxo-4-(trifluoromethyl)-1,2-dihydropyridin-3-yl)methyl)thiophene-3-carboxamide]	7.10	6.20
CCN(c1c(C)c(C(=O)NCc2c(C)cc(C)[nH]c2=O)nn1C)C1CCOCC1 [Example 14, N-[(4,6-dimethyl-2-oxo-1,2-dihydro-3-pyridinyl)methyl]-5-[ethyl(tetrahydro-2H-pyran-4-yl)amino]-1,4-dimethyl-1H-pyrazole-3-carboxamide]	6.20	5.70
CCCc1cc(C)[nH]c(=O)c1CNC(=O)c1csc(N(CC)[C@H]2CC[C@H](N(C)C)CC2)c1C [Example 16, 5-(((trans)-4-(Dimethylamino)cyclohexyl)(ethyl)amino)-4-methyl-N-((6-methyl-2-oxo-4-propyl-1,2-dihydropyridin-3-yl)methyl)thiophene-3-carboxamide]	≥ 8.00	7.60
CCN(c1scc(C(=O)NCc2c(C)cc(C)[nH]c2=O)c1C)C1CCNCC1 [Example 12, N-((4,6-dimethyl-2-oxo-1,2-dihydropyridin-3-yl)methyl)-5-(ethyl(piperidin-4-yl)amino)-4-methylthiophene-3-carboxamide hydrochloride]	≥ 8.00	7.70
CCN(c1ccc(C(=O)NCc2c(C)cc(C)[nH]c2=O)s1)C1CCOCC1 [Example 30, N-((4,6-Dimethyl-2-oxo-1,2-dihydropyridin-3-yl)methyl)-5-(ethyl(tetrahydro-2H-pyran-4-yl)amino)thiophene-2-carboxamide]	4.40	≤ 4.00
CCC(c1scc(C(=O)NCc2c(C)cc(C)[nH]c2=O)c1C)N1CCC(N(C)C)CC1 (centres unmarked) [Example 28, N-((4,6-dimethyl-2-oxo-1,2-dihydropyridin-3-yl)methyl)-5-(1-(4-(dimethylamino)piperidin-1-yl)propyl)-4-methylthiophene-3-carboxamide]	7.72	7.20
Cc1cc(C)c(CNC(=O)c2scc(OC(C)C)c2C)c(=O)[nH]1 [Example 1, N-((4,6-dimethyl-2-oxo-1,2-dihydropyridin-3-yl)methyl)-4-isopropoxy-3-methylthiophene-2-carboxamide]	5.50	4.60
